Experimental data from patent US7553929B2, “Cell permeable peptides for inhibition of inflammatory reactions and methods of use” (Vanderbilt University, priority 1994, dated 2009).

Tests used:
NIH 3T3 cells [1] = assay: [3H]thymidine incorporation (mitogenic response) of NIH 3T3 cells; format: cell-based; settings: serum-starved NIH 3T3 cells, 16 h + 4 h
Procedure: A 26-residue hybrid peptide (referred to as SA, listed herein as SEQ ID NO:3) was designed and synthesized. […] Thus, the SA peptide differs from the SM peptide only in its 7-residue carboxyl terminal “cargo” region. A functional assay was performed in which SA peptide was able to induce a mitogenic response of NIH 3T3 cells measured by [^3H]thymidine incorporation in a manner similar to aFGF bearing, the same NLS. ^18
In this functional assay, confluent 3T3 cells grown initially in DMEM containing 10% FBS were transferred to a low serum medium (DMEM containing 0.5% FBS) for 2 days. The test peptides, either SA peptide, SAα pep-tide, ANL peptide, or SM peptide, or aFGF, were added to a fresh low serum medium at the indicated concentrations at 37° C. After 16 hours, [^3H]thymidine was added and 4 hours later, the cells were washed with PBS, treated with trichloroacetic acid, solubilized with 0.15 M NaOH, and the radioactivity was determined in a liquid scintillation counter.
Bars represent the mean±S.E.M. of at least three independent experiments done in triplicate and calculated as multiplicity of counts in the tested sample over the control sample. SA peptide within the concentration range used (0 to 46 μM) was not cytotoxic as determined by staining with fluorescein diacetate/ethidium bromide. ^20

NIH 3T3 cells [2] = assay: DNA synthesis by flow cytometric analysis in serum-starved NIH 3T3 cells; format: cell-based; settings: 15 ng ml^−1, 20 h
Procedure: To further confirm the mitogenic activity of the SA peptide, its effect on DNA synthesis was examined. Serum-starved NIH 3T3 cells were treated with SA peptide, fixed, and the DNA concentration was determined by standard flow cytometric analysis. Specifically, confluent NIH 3T3 cells (1.3×10^6 cells) were serum-starved in DMEM containing 0.5% FBS for 2 days. The cells were untreated (control) or treated with SA peptide or aFGF for 20 h, harvested, spun down, and washed with serum-free PBS, three times. The cells were fixed with methanol precooled to −20° C. for DNA analysis carried out by the Flow Cytometry Research Service of Vanderbilt University. The data were the mean ±S.E.M. of six measurements and were analyzed for statistical significance by analysis of variance.

NIH 3T3 cells [3] = settings: aFGF binding to FGF receptors on NIH 3T3 cells; cited from earlier work

## aFGF: acidic fibroblast growth factor
NIH 3T3 cells [1]
  Stimulation of [3H]thymidine incorporation over control: ~8 fold
NIH 3T3 cells [2]
  Diploid % S Phase: 27.8 ± 2.3 (P < 0.05) %
NIH 3T3 cells [3]
  Tyrosine phosphorylation of intracellular proteins: induces the tyrosine phosphorylation
